This passage reports IC50 results from US11518761B2, “CDPK1 inhibitors, compositions, and methods related thereto” (Vyera Pharmaceuticals, LLC, priority 2017, dated 2022).

T. gondii CDPK1 (tgCDPK1), sequence (Q9BJF5 1-507): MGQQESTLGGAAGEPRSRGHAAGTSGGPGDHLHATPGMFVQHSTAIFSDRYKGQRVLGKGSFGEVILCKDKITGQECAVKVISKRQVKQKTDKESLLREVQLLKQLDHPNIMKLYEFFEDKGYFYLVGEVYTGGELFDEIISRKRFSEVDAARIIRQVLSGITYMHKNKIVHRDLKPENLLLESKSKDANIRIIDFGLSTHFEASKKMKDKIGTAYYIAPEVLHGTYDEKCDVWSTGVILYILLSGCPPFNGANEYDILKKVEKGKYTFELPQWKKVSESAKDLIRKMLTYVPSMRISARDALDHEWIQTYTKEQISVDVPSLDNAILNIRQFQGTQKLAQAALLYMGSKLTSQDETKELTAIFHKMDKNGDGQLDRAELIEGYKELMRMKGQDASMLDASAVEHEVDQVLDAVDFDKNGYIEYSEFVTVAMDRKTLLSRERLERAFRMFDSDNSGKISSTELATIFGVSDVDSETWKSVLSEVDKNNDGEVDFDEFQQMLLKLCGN

This experiment addresses T. gondii CDPK1 (tgCDPK1) (Toxoplasma gondii, UniProt Q9BJF5). Briefly: biochemical. The following applies: at least three independent replicates. On the procedure:
Certain of the compounds prepared as described above were assayed to determine their IC50 for inhibition of T. gondii CDPK1 (tgCDPK1). At least three independent replicates of the assay were conducted for each compound tested.
As to `Nc1ncnc2c1c(Oc1cc(C(F)(F)F)ccn1)nn2C1CC1` [Compound 77, 1-cyclopropyl-3-((4-(trifluoromethyl)pyridin-2-yl)oxy)-1H-pyrazolo[3,4-d]pyrimidin-4-amine], it took 16.5 nM to reach half-maximal inhibition (IC50). For the molecule `Nc1ncnc2c1c(Cc1cccc(Cl)c1)nn2[C@H]1C[C@@H](O)C1` [Compound 130, (cis)-3-(4-amino-3-(3-chlorobenzyl)-1H-pyrazolo[3,4-d]pyrimidin-1-yl)cyclobutan-1-ol], the 50% inhibitory concentration (IC50) (as a rule, the concentration needed to halve the response being measured) is 15.4 nM.

In turn, `Nc1ncnc2c1c(Cc1cccc(F)c1)nn2[C@H]1C[C@@H](O)C1` [Compound 132] registered an IC50 of 28.4 nM. The result for `Nc1ncnc2c1c(Oc1cccc(Cl)c1)nn2[C@H]1C[C@@H](O)C1` [Compound 152] reads 27.3 nM; that for `Nc1ncnc2c1c(Oc1cccc(F)c1)nn2[C@H]1C[C@@H](O)C1` [Compound 153, (cis)-3-(4-ammo-3-(3-fluorophenoxy)-1H-pyrazolo[3,4-d]pyrimidin-1-yl)cyclobutan-1-ol], 33.8 nM; that for `Nc1ncnc2c1c(Cc1c[nH]c3ccc(F)cc13)nn2[C@H]1C[C@H](O)C1` [Compound 154, (trans)-3-(4-amino-3-((5-fluoro-1H-indol-3-yl)methyl)-1H-pyrazolo[3,4-d]pyrimidin-1-yl)cyclobutan-1-ol], 11.8 nM. For `Nc1ncnc2c1c(Oc1cccc(F)c1)nn2[C@H]1C[C@H](O)C1` [Compound 155, (trans)-3-(4-amino-3-(3-fluorophenoxy)-1H-pyrazolo[3,4-d]pyrimidin-1-yl)cyclobulan-1-ol], the IC50 was found to be 38 nM. Molecule `Nc1ncnc2c1c(Oc1cc(Cl)ccn1)nn2[C@H]1C[C@H](F)C1` [Compound 158, 3-[(4-chloropyridin-2-yl)oxy]-1-[(trans)-3-fluorocyclobutyl]-l H-pyrazolo[3,4-d]pyrimidin-4-amine] showed an IC50 of 11.4 nM. In the case of `Nc1ncnc2c1c(Oc1cccc(C(F)(F)F)c1)nn2[C@H]1C[C@H](F)C1` [Compound 166] it was 28.9 nM; in that of “(2-((4-amino-1-cyclopropyl-1H-pyrazolo[3,4-d]pyrimidin-3-yl)oxy)pyrimidin-4-yl)methanol [Compound 86]”, 29.6 nM.
